Several values for one entry are separate records, joined by “and”; a condition that tells them apart may be missing. Identical values can stand only once.
Columns and labels:
HUVEC spheroids = assay: HUVEC spheroid sprouting, cumulative sprout length (Example 5 modified in vitro model); assay type: cell-based, Human; conditions: for sprout length versus control across concentrations: 100, 20, 4, 0.8, 0.16, 0.032 μM
Description: Similar to the approach described in Example 1, two further compounds were evaluated for their ability to initiate or increase angiogenesis. HUVEC spheroids were prepared by pipetting 400 HUVE cells (PromoCell, Heidelberg, Germany, cultured according to supplier's instructions) into each well of non-adhesive 96-well plates and allowed to aggregate overnight. After harvesting, 48 spheroids were seeded in 900 μl of methocel-collagen solution and pipetted into individual wells in a 24-well plate, allowing for collagen gel polymerization. After 30 minutes, freshly-prepared test compounds were added (prepared by dissolving lyophilized compound at a concentration of 10 mM in DMSO, specific concentrations administered described below) by pipetting 100 μl of a 10-fold concentrated working dilution on top of the gel. At the end of the incubation period the dishes were fixed for 24 hours at 37° C. with paraformaldehyde.
Sprouting intensity of endothelial cells was quantitated by an image analysis system determining the cumulative sprout length per spheroid using an Olympus IX50 inverted microscope and Olympus image analysis software. The mean of the cumulative sprout length of 10 randomly selected spheroids was analyzed as an individual data point.

[1] = system: Human umbilical vein endothelial cells (HUVEC); assay: HUVEC cluster sprouting in collagen gel (Example 1 in vitro model); assay type: cell-based; conditions: for sprout length versus cells receiving VEGF only: co-administered with VEGF
Description: Human umbilical vein endothelial cells (HUVEC) were used to evaluate various gamma-secretase inhibitors for potential angiogenesis effect. A 72 cm2 flask of confluent cells (1.5-2 E6 cells) was trypsinized with 3.5 ml trypsin/EDTA. After a maximum of 3 minutes, the cells were rinsed with 1.5 ml serum then centrifuged at 200 g for 3 minutes. After centrifugation, the supernatant was discarded and the cells resuspended in medium (endothelial cell growth medium (Promocell) with additional 10% serum). Cell concentration was diluted to 2.0×10^4 cells/ml in medium supplemented with 20% methocel stock solution. The cells were clustered in hanging drops of 20 μl (400 cells) overnight.
To imbed the cells in gel, the drops were first rinsed with PBS. The clusters were centrifuged at 200 g for 3 minutes and the supernatant removed. Centrifuge tubes were then briefly drawn over a rough surface to loosen the pellet. The clusters were resuspended in ice cold methocel stock solution supplemented with 20% protein. An equal amount of collagen I-gel at 3 mg/ml (Becton-Dickinson) was carefully mixed with the cells. Immediately thereafter, 1000 μl of the gel/cell cluster mixture was added to each well of a preheated (37° C.) 24-well plate. The plate was incubated for 30 minutes at 37° C., 5% CO2 and 100% humidity. One hundred μl of medium, along with the desired test substance and optionally 2.5 μl of 10 μg/ml VEGF were added to each well to a final concentration in the top medium of 250 ng/ml and 25 ng/ml in the well. Negative control cells received medium only and positive control cells received medium and VEGF only. The wells without gel were given 1 ml PBS.
To quantify the results, ten clusters from each […] were photographed. The length of the five longest sprouts on each cluster was measured, and the sum of the sprout length from each cluster calculated. Average values from ten clusters were obtained.
The above-mentioned methocel stock solution was prepared by autoclaving 6 grams of pure methyl cellulose powder (Sigma) in a 500 ml flask containing a magnetic stirrer. After autoclaving the methyl cellulose was dissolved in 250 ml of basal medium preheated to 60° C. for 20 minutes. An additional 250 ml of basal medium at room temperature was added to a final volume of 500 ml and the solution stirred overnight. Finally, the stock solution was aliquotted and cleared through centrifugation at 5000g for 2 hours at room temperature. The 90-95% of the material which became the clear, highly viscous supernatant was used.

[2] = system: Oxygen-induced retinopathy mice; assay: Oxygen-induced retinopathy mouse model, retinal whole mount analysis; assay type: in vivo
Source text: Oxygen-induced retinopathy mice were used to determine the extent and effect of gamma-secretase inhibitors on the angiogenic process. Mice with oxygen induced retinopathy (OIR mice) are a commonly-used model and are described in the literature (see, Smith et al, supra). They are at times referred to as retinopathy of prematurity models or ROP mice. The model takes advantage of the fact that full term mice pups are born with an immature retinal vascularization which matures during the first three weeks of postnatal growth. Briefly, neonatal mice (NMRI/C57b1) from the same litter were placed, with their nursing mother, in a hyperoxic environment (75% oxygen) at age day seven. After exposure to the hyperoxic environment for 5 days, the 12-day old pups were removed to normal air. In the treated mice, DAPT was administered once daily during age days 12-16. Control pups were treated the same way but injected with the vehicle. At post natal day 17 the mice were euthanized and the retinas were prepared for whole mount immunohistochemistry. Except for the mode of injection, the stock solution of DAPT was prepared and administered essentially as described in Lanz et al., (2003, J. Pharmacol. Exp. Ther. 305:864-71). In short, 5 mg DAPT was dissolved in 25 μl 99.5% EtOH and then dissolved in 475 μl Corn oil (Sigma, Catalog No. C8267). If precipitate formed, the solution was heated to 70° C. for 2-3 minutes. The pups were injected subcutaneously once a day according to: V(μl)=weight (g)*10, that is, 100 mg DAPT/kg body weight. Control pups were injected subcutaneously once a day with the same amount of vehicle (i.e. 5% EtOH in corn oil). Eyes were fixed in 4% PFA in PBS at 4° C. overnight and washed in PBS. […] This can be quantified in the superficial capillary plexus by counting the number of capillary enclosed areas in the peripheral part of the retina.

new born mice = assay: Physiological retinal angiogenesis in new born (non-OIR) mice; assay type: in vivo; conditions: administered postnatal days 3 and 4, retinas analysed day 5
Description: To investigate if the increased retinal vascularization after DAPT treatment was restricted to the OIR, the effect of DAPT on physiological angiogenesis in new born mice was investigated. DAPT was administered to new born mice on postnatal days 3 and 4 and retinas were analyzed at day 5 as described above. […] This can be observed by comparing the degree of vascularization in the retina of control animals, FIGS. 20 and 21, with that of treated animals as shown in FIGS. 22 and 23. Except for the increased vascular density, the vascular architecture was normal. The growth of the vascular network towards the periphery and the arterio-venous specification were intact for DAPT-treated mice as with controls.

[3] = 100 μM test compound co-administered with 25 ng/ml VEGF-A
[4] = 100 μM test compound, no VEGF-A

VEGF
cumulative length of all sprouts (CSL) (HUVEC spheroids; VEGF-A only, 25 ng/ml): 1794 μm and 1860+/−100 μm | average sprout length ([1]; VEGF only (positive control), 25 ng/ml in the well): 460 μm and 370 μm and 320 μm

CC(C)[C@H](O)C(=O)N[C@@H](C)C(=O)N[C@@H]1C(=O)N(C)CCc2ccccc21 [LY-450, 139, (N)—[(S)-2-hydroxy-3-methyl-butyryl]-1-(L-alaninyl)-(S)-1-amino-3-methyl-4,5,6,7-tetrahydro-2H-3-benzazepin-2-one]
cumulative length of all sprouts (CSL) (HUVEC spheroids; [3]): 3521 μm | cumulative length of all sprouts (CSL) (HUVEC spheroids; [4]): 1730 μm | sprout length versus control across concentrations (HUVEC spheroids; no VEGF-A): lower concentrations were not found to be effective | sprout length versus VEGF-A only across concentrations (HUVEC spheroids; 100 to 0.032 μM co-administered with 25 ng/ml VEGF-A): Only the lowest concentration tested failed to produce longer sprouts that VEGF-A

CC1(C)[C@@H]2CC[C@@](C)(C2)[C@@H]1NS(=O)(=O)c1ccc(F)cc1 [1-(S)-endo-N-(1,3,3)-Trimethylbicyclo[2.2.1]hept-2-yl)-4-fluorophenyl Sulfonamide]
average sprout length ([1]; 0.16 μM test compound, no VEGF): 280 μm | increase in length versus control cells ([1]; 0.16 μM, no VEGF): 100% | average sprout length ([1]; 20 μM test compound co-administered with VEGF): 480 μm

COC(=O)[C@@H](NC(=O)[C@H](CC(C)C)NC(=O)N(Cc1ccccc1)C[C@@H](O)[C@H](Cc1ccccc1)NC(=O)OC(C)(C)C)C(C)C [WPE-III-31C]
average sprout length ([1]; 0.16 μM test compound co-administered with VEGF): 410 μm | average sprout length ([1]; 0.16 μM test compound, no VEGF): 230 μm | sprout length at increasing concentrations ([1]; WPE-III-31C 0.16, 0.8 and 4 μM, no VEGF): only increased with increasing concentrations | sprout length versus cells receiving VEGF only [1]: significantly longer sprout lengths than the control cells

C[C@H](NC(=O)C(O)c1cc(F)cc(F)c1)C(=O)N[C@H]1N=C(c2ccccc2)c2ccccc2N(C)C1=O (stereo partly drawn) [Compound X, S-3-[N′-(3,5-difluorophenyl-alpha-hydroxyacetyl)-L-alanilyl]amino-2,3-dihydro-1-methyl-5-phenyl-1H-1,4-benzodiazepin-2-one]
sprouting versus VEGF-A only (HUVEC spheroids; 4 μM test compound co-administered with VEGF-A): increase the sprouting significantly | cumulative length of all sprouts (CSL) (HUVEC spheroids; [3]): 4289 μm | cumulative length of all sprouts (CSL) (HUVEC spheroids; [4]): 1630 μm | sprout length versus control across concentrations (HUVEC spheroids; no VEGF-A): Only the two lowest concentrations tested failed to produce longer sprouts that control

C[C@H](NC(=O)Cc1cc(F)cc(F)c1)C(=O)N[C@H](C(=O)OC(C)(C)C)c1ccccc1 [DAPT]
avascular zones in the central retina ([2]; 100 mg/kg s.c. once daily days 12-16, analysed day 17): almost completely lack the vascular-free zones | number of capillary enclosed areas in the peripheral retina ([2]; 100 mg/kg s.c. once daily days 12-16, day 17, versus vehicle control): near doubling | vascular (capillary) tufts in retina ([2]; 100 mg/kg s.c. once daily days 12-16, versus control): significant reduction in capillary tufts | average sprout length ([1]; 0.08 μM test compound, no VEGF, +/- SEM): 330+/−28 μm | average sprout length ([1]; 0.4 μm DAPT co-administered with VEGF): 550+/−32 μm | sprout length at increasing levels ([1]; DAPT 0.4, 2, 10 and 50, no VEGF, versus 0.08 μM): further increases in sprout length | sprout length versus cells receiving VEGF only [1]: increases in sprout length over those with VEGF alone | peripheral retinal vascular density (new born mice): increased peripheral vascular density | vascular architecture of retina (new born mice): normal
